Data on six compounds can be found in patent US20240376138A1, “Crystal Forms, Preparation Method And Application Of Aryl Phosphine Oxide Compound” (Chengdu Di'Ao Jiuhong Pharmaceutical Factory, priority 2021, published 2024).

In data set [1] the target is Ba/F3 cells expressing EGFR-WT (Homo sapiens, UniProt P00533). Briefly: Cell anti-proliferation experiment 1, BaF3 EGFR-WT wild-type cell line (CellTiter-Glo). The conditions noted are these: read-out: EGFR-WT IC50. The class given is cell-based.
Protocol: (§6) Test purpose: to detect the effect of the test compounds on the proliferation of cell lines containing EGFR mutations in BaF3 cells • 2. […] Cell information: Cell lines containing EGFR mutations in BaF3 were from WuXiAppTec: • BaF3-cell lines expressing EGFR mutation • EGFR-T790M/Del19 • EGFR-C797S/Del19 • EGFR-T790M/L858R • EGFR-C797S/L858R • EGFR-C797S/T790M/L858R • EGFR-C797S/T790M/Del19 • EGFR-WT wild-type cell lines • 2.2. Test method • Day 0: Cells were seeded in a plate. • a. An ultraviolet lamp of a biological safety cabinet was turned on and countdown was started for 30 minutes. • b. A medium was preheated in a 37° C. water bath. • c. After the ultraviolet irradiation was finished, the biological safety cabinet was opened. The pre-heated medium, PBS, and the like, were wiped with alcohol and placed in the biological safety cabinet. • d. The cells were removed from an incubator, blown to a uniform cell suspension in the biological safety cabinet and counted. • e. Based on the cell counting results, the cell suspension was adjusted to a density of 3,000 cells per well and 50 microliters per well, and seeded in 384-well plates. • f. The cells after seeding were incubated in a 5% CO2 incubator at 37° C. for 3 hours. • g. Compounds were added to the cell plates using Tecan (liquid workstation). • Day 3: the cell plate added with the compounds and CTG (CellTiter-Glo chemiluminescence cell activity assay reagent) were equilibrated at room temperature, 25 μl of CTG was added to each well, centrifuged at 1,000 rpm for 1 minute, and shaken for 1-2 minutes. And centrifuging for 1 minute at 1,000 rpm again, the cell plates were allowed to settle for 10 minutes to detect a signal value in Envision. The IC50 of each compound was calculated by computer fitting with XL-Fit analysis software (the IC50 of the compound on the cell activity inhibition could be obtained by reading the concentrations of the corresponding compounds at 500 inhibition rate). Inhibition rate % C (reading value of the control group without drug−reading value of the sample)/reading value of the control group without drug×100. • 3.
Data set [2] has as its target Ba/F3 cells expressing EGFR-C797S/T790M/L858R (Homo sapiens, UniProt P00533, T790M/C797S/L858R, cells depend on it). Briefly: Cell anti-proliferation experiment 1, BaF3 cells expressing EGFR mutation (CellTiter-Glo). In kind it is cell-based. The conditions noted are these: read-out: EGFR-C797S/T790M/L858R IC50.
Protocol: as §6
Data set [3] concerns the target T1, BaF3 cells expressing EML-4-ALK-WT (Homo sapiens, UniProt Q9UM73).
T1 construct: fused on or other part: Q9HC35 (Echinoderm microtubule-associated protein-like 4)
Briefly: Cell anti-proliferation experiment 3, BaF3 cells with ALK fusion (CellTiter-Glo). In kind it is cell-based. To be noted: 3 days, CTG, read-out: EML-4-ALK-WT IC50. The text has this:
(§1) • 1. […] Test information: • 2.1. Cell information: Cell lines containing ALK mutations in BaF3 were from WuXiAppTec: • Ba/F3-cell lines expressing ALK gene fusion and mutation • Ba/F3-EML-4-ALK-WT • Ba/F3-EML-4-ALK-L 1196M • 2.2.
(§2) Test results: The IC50 values of the compound DA and the control compound against BaF3 cells expressing EML-4-ALK-WT and EML-4-ALK-L1196M are shown in Table 22. • 4.
(In general: Cellular ATP, detected with luciferase, serves as a proxy for viable cell number.)

Data set [4] has as its target Ba/F3 cells expressing EGFR-C797S/Del19 (Homo sapiens, UniProt P00533, C797S, cells depend on it, form not given). The data set is described as follows: Cell anti-proliferation experiment 1, BaF3 cells expressing EGFR mutation (CellTiter-Glo). In kind it is cell-based. The conditions noted are these: 3 days, CTG, read-out: EGFR-C797S-Del19 IC50.
The target of data set [5] is Ba/F3 cells expressing EGFR-C797S/T790M/Del19 (Homo sapiens, UniProt P00533, T790M/C797S, cells depend on it, form not given). The description is as above. The class given is cell-based. To be noted: read-out: EGFR-C797S/T790M/Del19 IC50.
Data set [6] deals with Ba/F3 cells expressing EGFR-T790M/Del19 (Homo sapiens, UniProt P00533, T790M, cells depend on it, form not given). The data set is described as above. The class given is cell-based. The conditions noted are these: 3 days, CTG, read-out: EGFR-T790M/Del19 IC50.
For data set [7], the target named is T2, BaF3 cells expressing EML-4-ALK-L1196M (Homo sapiens, UniProt Q9UM73, L1196M, cells depend on it).
T2 construct: fused on or other part: Q9HC35 (Echinoderm microtubule-associated protein-like 4)
Briefly: Cell anti-proliferation experiment 3, BaF3 cells with ALK fusion and mutation (CellTiter-Glo). In kind it is cell-based. The conditions noted are these: 3 days, CTG, read-out: EML-4-ALK-L1196M IC50.
Excerpt: as §1, §2

The nature of data set [8]: Comparative experiment of hygroscopicity (Chinese Pharmacopoeia 2020). The conditions noted are these: for Hygroscopicity: class by weight gain after 24 h; for Weight gain % after 24 h: hygroscopicity test. In kind it is physicochemical. The text has this:
The description of hygroscopic characteristics and the definition of hygroscopic weight gain are as follows: • Deliquescence: absorbs sufficient amount of water to form a liquid; • Very hygroscopic: the weight gain by hygroscopy is not less than 15%; • Hygroscopic: the weight gain by hygroscopy is less than 15% but not less than 2%; • Slightly hygroscopic: the weight gain by hygroscopy is less than 2% but not less than 0.2%; and
Not or almost not hygroscopic: the weight gain by hygroscopy is less than 0.2% from hygroscopicity.

Data set [9] in a line: Solubility test. In kind it is physicochemical. The conditions noted are these: Solution with pH = 6.8, 25° C.±2° C.
Data set [10] can be described thus: Stability test 3: long-term and accelerated conditions. In kind it is physicochemical. To be noted: Long-term (25° C. ± 2° C., 65% RH ± 10% RH).
A short description of data set [11]: High temperature and illumination stability test of crystal forms 1-3. In kind it is physicochemical. To be noted: for Traits: Day 10 (Table 18-1). The text has this:
The stabilities of crystal form 2 and crystal form 3 under high temperature, illumination and long-term conditions were investigated.

Test in data set [12]: as above
The class given is physicochemical. To be noted: Illumination (illuminance: 5000Lx), Day 0 (Table 18-1).

The subject of data set [13] is PC9 cells expressing EGFR-Del19. The data set is described as follows: Cell anti-proliferation experiment 2, PC9 cells (SRB). In kind it is cell-based. The conditions noted are these: Homo sapiens, PC-9, 72 h, read-out: EGFR-Del 19 GI50. How it is done:
(§3) • 1. […] Test information: • 2.1. Cell information: PC9 cells carried EGFR Del19 mutation, and the rest of mutant cells were constructed from PC9 cells according to the conventional stable cell strain construction method. • PC9-cell lines expressing EGFR mutation • EGFR-Del19 • EGFR-T790M/Del19 • EGFR-C797S/T790M/Del19 • 2.2. Test method:
(§4) The test compounds were diluted by 5 times each time with an appropriate concentration as an initial concentration of the test, and totally diluted into 6 concentration gradients. […] SRB (Sulforhodamine B) detection method was used, and the optical density value of each well was read by a microplate reader at 490 nm wavelength.
(§5) The optical density of the cells at the drug action of 0 was set as a Tz value representing the value of the cells at the time that the drug was added. The optical density value of the cells after the solvent control DMSO acted for 72 hours was set as a C value. The optical density of the cells on which the test compounds acted for 72 hours was set as a Ti value. The response of the cells to the drug was calculated according to a method proposed by the U.S. NIH-NCI (National Institutes of Health-National Institute of Cancer): When Ti is more than or equal to Tz, the value was [(Ti−Tz)/(C−Tz)]×100; and when Ti is less than Tz, the value was [(Ti−Tz)/Tz]×100.

The subject of data set [14] is PC9 cells expressing EGFR-C797S/T790M/Del19. Described as above. In kind it is cell-based. The conditions noted are these: Homo sapiens, PC-9, 72 h, read-out: EGFR-C797S/T790M/Del19 GI50. As for the experimental part:
as §3, §4, §5

For data set [15], the system named is PC9 cells expressing EGFR-T790M/Del19. Described as above. To be noted: Homo sapiens, PC-9, 72 h, read-out: EGFR-T790M/Del19 GI50. In kind it is cell-based. As for the experimental part:
as §3, §4, §5

Data set [16] deals with Ba/F3 cells expressing EGFR-C797S/L858R (Homo sapiens, UniProt P00533, C797S/L858R, cells depend on it). Briefly: Cell anti-proliferation experiment 1, BaF3 cells expressing EGFR mutation (CellTiter-Glo). The class given is cell-based. To be noted: 3 days, CTG, read-out: EGFR-C797S/L858R IC50.
Protocol: (§7) Test purpose: to detect the effect of the test compounds on the proliferation of cell lines containing EGFR mutations in BaF3 cells • 2. Test information: • 2.1. Cell information: Cell lines containing EGFR mutations in BaF3 were from WuXiAppTec: • BaF3-cell lines expressing EGFR mutation • EGFR-T790M/Del19 • EGFR-C797S/Del19 • EGFR-T790M/L858R • EGFR-C797S/L858R • EGFR-C797S/T790M/L858R • EGFR-C797S/T790M/Del19 • EGFR-WT wild-type cell lines • 2.2. Test method • Day 0: Cells were seeded in a plate. • a. An ultraviolet lamp of a biological safety cabinet was turned on and countdown was started for 30 minutes. • b. A medium was preheated in a 37° C. water bath. • c. After the ultraviolet irradiation was finished, the biological safety cabinet was opened. […] The cells were removed from an incubator, blown to a uniform cell suspension in the biological safety cabinet and counted. • e. […] The IC50 of each compound was calculated by computer fitting with XL-Fit analysis software (the IC50 of the compound on the cell activity inhibition could be obtained by reading the concentrations of the corresponding compounds at 500 inhibition rate). Inhibition rate % C (reading value of the control group without drug−reading value of the sample)/reading value of the control group without drug×100. • 3.
The target of data set [17] is Ba/F3 cells expressing EGFR-T790M/L858R (Homo sapiens, UniProt P00533, T790M/L858R, cells depend on it). The data set is described as above. The class given is cell-based. To be noted: 3 days, CTG, read-out: EGFR-T790M/L858R IC50.
Protocol: as §7
Where [18] appears, read: High temperature (50° C.), Day 10.
Where [19] appears, read: High temperature (50° C.), Day 30.
The mark [20] stands for this setting: Illumination (illuminance: 5000Lx), Day 10.
Setting [21] is: Illumination (illuminance: 5000Lx).
Setting [22] is: Illumination (illuminance: 5000Lx), Day 30.

Chain of Ba/F3 cells expressing EGFR-C797S/T790M/L858R (P00533 whole entry T790M/C797S/L858R): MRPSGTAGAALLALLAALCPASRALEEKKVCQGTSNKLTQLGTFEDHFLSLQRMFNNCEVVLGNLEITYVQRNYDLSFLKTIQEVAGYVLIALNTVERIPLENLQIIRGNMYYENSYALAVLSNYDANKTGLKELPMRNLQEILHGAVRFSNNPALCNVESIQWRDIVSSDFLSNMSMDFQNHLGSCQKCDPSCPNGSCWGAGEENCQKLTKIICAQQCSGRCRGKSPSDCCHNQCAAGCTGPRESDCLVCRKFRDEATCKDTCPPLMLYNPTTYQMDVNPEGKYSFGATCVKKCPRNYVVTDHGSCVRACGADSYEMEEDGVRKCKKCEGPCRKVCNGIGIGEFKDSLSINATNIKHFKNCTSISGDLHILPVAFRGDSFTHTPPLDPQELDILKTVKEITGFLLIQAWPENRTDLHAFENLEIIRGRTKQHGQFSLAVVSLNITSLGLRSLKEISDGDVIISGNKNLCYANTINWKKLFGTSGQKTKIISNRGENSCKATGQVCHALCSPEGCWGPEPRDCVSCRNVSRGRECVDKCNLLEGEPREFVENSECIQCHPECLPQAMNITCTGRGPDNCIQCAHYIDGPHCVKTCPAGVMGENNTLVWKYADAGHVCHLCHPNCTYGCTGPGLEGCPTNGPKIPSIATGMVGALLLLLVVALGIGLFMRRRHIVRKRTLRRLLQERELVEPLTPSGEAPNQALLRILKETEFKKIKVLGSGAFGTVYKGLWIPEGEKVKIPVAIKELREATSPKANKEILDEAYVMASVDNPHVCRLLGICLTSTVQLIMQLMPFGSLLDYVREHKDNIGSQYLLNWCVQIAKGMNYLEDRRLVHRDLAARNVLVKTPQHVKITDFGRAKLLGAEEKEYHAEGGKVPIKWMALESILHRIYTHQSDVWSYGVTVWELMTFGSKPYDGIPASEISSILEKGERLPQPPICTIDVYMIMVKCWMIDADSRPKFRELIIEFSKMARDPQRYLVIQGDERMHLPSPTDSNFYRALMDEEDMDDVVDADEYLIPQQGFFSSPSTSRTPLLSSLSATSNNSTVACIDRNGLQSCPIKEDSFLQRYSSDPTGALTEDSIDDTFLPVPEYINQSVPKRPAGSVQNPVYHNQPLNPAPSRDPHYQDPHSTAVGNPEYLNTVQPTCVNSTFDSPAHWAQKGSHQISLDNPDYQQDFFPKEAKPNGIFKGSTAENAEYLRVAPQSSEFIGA
Chain of Ba/F3 cells expressing EGFR-C797S/T790M/Del19 (P00533 with tags, fused parts or gaps DEL746-750/T790M/C797S, form open): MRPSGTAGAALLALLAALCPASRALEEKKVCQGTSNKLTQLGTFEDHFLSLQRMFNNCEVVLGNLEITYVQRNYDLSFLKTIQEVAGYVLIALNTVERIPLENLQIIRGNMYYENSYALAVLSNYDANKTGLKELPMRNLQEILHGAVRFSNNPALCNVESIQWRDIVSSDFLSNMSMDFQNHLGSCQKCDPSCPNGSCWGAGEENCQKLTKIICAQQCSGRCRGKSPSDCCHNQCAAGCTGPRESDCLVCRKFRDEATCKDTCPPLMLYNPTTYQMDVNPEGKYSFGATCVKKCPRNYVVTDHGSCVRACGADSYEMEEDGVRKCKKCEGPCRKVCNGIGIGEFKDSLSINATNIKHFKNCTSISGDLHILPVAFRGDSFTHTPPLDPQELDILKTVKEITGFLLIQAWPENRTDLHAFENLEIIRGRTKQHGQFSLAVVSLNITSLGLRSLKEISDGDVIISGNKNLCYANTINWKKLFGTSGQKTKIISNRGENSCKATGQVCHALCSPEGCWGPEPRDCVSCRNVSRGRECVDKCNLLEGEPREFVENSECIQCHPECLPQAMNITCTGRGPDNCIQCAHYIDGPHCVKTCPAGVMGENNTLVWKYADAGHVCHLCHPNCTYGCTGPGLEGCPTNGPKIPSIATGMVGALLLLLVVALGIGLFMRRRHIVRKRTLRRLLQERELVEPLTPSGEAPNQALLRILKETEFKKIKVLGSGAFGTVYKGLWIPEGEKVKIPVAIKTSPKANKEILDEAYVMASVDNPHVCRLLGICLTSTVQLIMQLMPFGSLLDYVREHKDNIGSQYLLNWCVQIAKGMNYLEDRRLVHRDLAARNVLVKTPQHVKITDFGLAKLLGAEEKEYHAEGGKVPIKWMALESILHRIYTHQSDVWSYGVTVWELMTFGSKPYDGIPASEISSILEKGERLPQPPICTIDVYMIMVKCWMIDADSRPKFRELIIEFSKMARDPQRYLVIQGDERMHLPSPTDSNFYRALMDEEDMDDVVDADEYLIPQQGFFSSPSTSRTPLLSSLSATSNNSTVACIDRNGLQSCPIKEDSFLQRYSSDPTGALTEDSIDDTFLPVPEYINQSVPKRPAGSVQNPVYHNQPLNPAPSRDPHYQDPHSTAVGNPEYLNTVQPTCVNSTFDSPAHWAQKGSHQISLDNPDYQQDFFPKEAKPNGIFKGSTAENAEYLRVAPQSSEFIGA
T2 sequence (Q9UM73 whole entry L1196M, the tested form may be a part): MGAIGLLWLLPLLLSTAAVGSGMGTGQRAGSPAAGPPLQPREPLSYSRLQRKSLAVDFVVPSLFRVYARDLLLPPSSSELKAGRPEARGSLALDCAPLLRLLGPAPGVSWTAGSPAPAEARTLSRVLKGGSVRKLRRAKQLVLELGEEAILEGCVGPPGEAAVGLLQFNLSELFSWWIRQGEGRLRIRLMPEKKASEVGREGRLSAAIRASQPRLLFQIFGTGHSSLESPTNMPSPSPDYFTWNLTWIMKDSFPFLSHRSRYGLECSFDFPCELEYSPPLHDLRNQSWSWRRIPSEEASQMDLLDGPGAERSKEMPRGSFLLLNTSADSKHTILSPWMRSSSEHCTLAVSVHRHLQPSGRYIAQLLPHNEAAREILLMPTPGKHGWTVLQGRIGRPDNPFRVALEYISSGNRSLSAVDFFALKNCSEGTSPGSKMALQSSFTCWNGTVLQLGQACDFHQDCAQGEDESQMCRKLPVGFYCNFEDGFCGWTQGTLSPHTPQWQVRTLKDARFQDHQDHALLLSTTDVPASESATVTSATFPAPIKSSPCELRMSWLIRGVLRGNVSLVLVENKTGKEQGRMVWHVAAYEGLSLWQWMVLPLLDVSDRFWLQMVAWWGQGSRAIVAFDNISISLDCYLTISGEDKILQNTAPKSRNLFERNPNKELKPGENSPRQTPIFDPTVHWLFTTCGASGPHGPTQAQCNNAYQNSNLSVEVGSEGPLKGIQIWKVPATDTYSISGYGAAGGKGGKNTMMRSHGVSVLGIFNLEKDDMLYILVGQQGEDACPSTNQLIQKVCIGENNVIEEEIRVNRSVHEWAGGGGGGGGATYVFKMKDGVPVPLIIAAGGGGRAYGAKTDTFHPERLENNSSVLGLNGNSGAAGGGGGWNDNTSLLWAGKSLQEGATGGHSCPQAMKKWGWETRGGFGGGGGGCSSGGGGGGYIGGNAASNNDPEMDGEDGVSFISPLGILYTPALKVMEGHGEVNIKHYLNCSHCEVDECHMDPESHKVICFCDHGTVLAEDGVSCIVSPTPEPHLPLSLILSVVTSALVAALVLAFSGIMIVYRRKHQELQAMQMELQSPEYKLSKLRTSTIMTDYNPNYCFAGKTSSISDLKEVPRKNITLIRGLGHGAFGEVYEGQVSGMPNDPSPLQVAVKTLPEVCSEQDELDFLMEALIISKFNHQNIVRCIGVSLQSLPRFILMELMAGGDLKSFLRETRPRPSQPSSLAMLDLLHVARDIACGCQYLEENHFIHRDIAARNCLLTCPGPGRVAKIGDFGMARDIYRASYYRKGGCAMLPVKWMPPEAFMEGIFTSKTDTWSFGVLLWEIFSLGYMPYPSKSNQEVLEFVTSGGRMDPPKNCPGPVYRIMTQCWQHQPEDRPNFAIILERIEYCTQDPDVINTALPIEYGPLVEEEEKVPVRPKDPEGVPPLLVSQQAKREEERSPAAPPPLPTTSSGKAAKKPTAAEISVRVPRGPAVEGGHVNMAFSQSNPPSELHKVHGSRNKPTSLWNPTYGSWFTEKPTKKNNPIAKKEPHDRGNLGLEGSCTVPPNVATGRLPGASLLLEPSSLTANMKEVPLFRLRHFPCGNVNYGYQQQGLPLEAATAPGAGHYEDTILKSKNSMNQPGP
T1 sequence (Q9UM73 whole entry, change not shown, the tested form may be a part): as the sequence (Q9UM73 whole entry L1196M, the tested form may be a part) above, with M1196L counted along it

In the case of `COc1cc(N2CCC(N3CCN(C)CC3)CC2)c(C)cc1Nc1ncc(Cl)c(Nc2ccccc2P(C)(C)=O)n1` [Control compound 2], the GI50 in data set [1] stood at 1760 nM; in data set [2] it was 583 nM; in [3], 43.6 nM; in [4], 177 nM; in data set [5], 221 nM; in data set [6], 172 nM. The GI50 in data set [7] was 47.4 nM.
`COc1cc(N2CCC(N3CCN(C)CC3)CC2)c(C)cc1Nc1ncc(Br)c(Nc2ccc(C)cc2P(C)(C)=O)n1` [Crystal form 2, (2-((5-bromo-2-((2-methoxy-5-methyl-4-(4-(4-methylpiperazin-1-yl)piperidin-1-yl)phenyl)amino)pyrimidin-4-yl)amino)-5-methylphenyl)dimethylphosphorus oxide]: in data set [8], the Hygroscopicity result is “Slightly hygroscopic (the weight gain by hygroscopy is less than 2% but not less than 0.2%)”. For the same compound, in data set [8], the “Weight gain % after 24 h” value is 1.35%. In [9], the “Solubility for 24 h” value was found to be 1360 µg/mL. Moreover, the Traits entry in data set [10] (Day 0) is on record as “Off-white”; in [10] (Day 30), “Light yellow”; in [11] (setting [21]), “light yellow”; in data set [12], “off-white”. Besides, the purity entry in [11] (Day 0) is given as “purity: 99.37%”; in data set [11] (setting [18]) it was 99.20% the; in data set [11] (setting [19]), “purity: 98.72%;”; in [11] (setting [20]), 99.01% the; in data set [11] (setting [22]), “purity: 98.0%;”. The “the number of impurities above the reporting limit” value in data set [11] (Day 0) is recorded as “limit is 7 total”; in [11] (setting [18]), “limit is 9 total”; in data set [11] (setting [19]), “limit is 13;”; in [11] (setting [20]), “limit is 10 total”; in [11] (setting [22]) it was “limit is 14;”. Besides, the total impurities result in data set [11] (Day 0) was “impurities: 0.63%”; in [11] (Day 0, listed as crystal form 2), 0.63%; in [11] (setting [18]), “impurities: 0.80%”; in data set [11] (setting [19]), 1.28%; in data set [11] (setting [20]) it was “impurities: 0.99%”; in [11] (setting [22]), 2.0%. Further, the total impurities in data set [11] (Illumination (illuminance: 5000Lx), Day 30, listed as crystal form 2) amounted to 2.0%.
Turning to `COc1cc(N2CCC(N3CCN(C)CC3)CC2)c(C)cc1Nc1ncc(Br)c(Nc2ccc(C)cc2P(C)(C)=O)n1` [Crystal form 3, (2-((5-bromo-2-((2-methoxy-5-methyl-4-(4-(4-methylpiperazin-1-yl)piperidin-1-yl)phenyl)amino)pyrimidin-4-yl)amino)-5-methylphenyl)dimethylphosphorus oxide], the Hygroscopicity result in data set [8] was “Slightly hygroscopic (the weight gain by hygroscopy is less than 2% but not less than 0.2%)”. Further, in data set [8], the “Weight gain % after 24 h” value was found to be 1.49%. For the same compound, the “Solubility for 24 h” value in [9] turned out to be 1230 µg/mL. The Traits entry in data set [10] (Day 0) is recorded as “Off-white”; in data set [10] (Day 30), “Light yellow”; in [11] (setting [21]), “light yellow”; in [12] it was “off-white”. Also, the purity result in [11] (Day 0) is “purity: 99.44%;”; in [11] (setting [18]), 99.28%; the; in data set [11] (setting [19]), 98.89%; the; in data set [11] (setting [20]), “purity: 98.83%;”; in [11] (setting [22]), “purity: 96.95%;”. For the same compound, the “the number of impurities above the reporting limit” value is “limit is 7;” in data set [11] (Day 0); “limit is 7; total” in data set [11] (setting [18]); “limit is 10;” in data set [11] (setting [19]); “limit is 10;” in data set [11] (setting [20]); “limit is 17;” in [11] (setting [22]). Moreover, the total impurities in data set [11] (Day 0) is on record as 0.56%; in data set [11] (Day 0, listed as crystal form 3), 0.56%; in data set [11] (setting [18]) it was “impurities: 0.72%”; in data set [11] (setting [19]), 1.11%; in [11] (setting [20]) it was 1.17%; in data set [11] (setting [22]), 3.05%. In data set [11] (Illumination (illuminance: 5000Lx), Day 30, listed as crystal form 3), this compound showed a total impurities of 3.05%.
For the compound `COc1cc(N2CCC(N3CCN(C)CC3)CC2)ccc1Nc1ncc(Cl)c(Nc2ccccc2P(C)(C)=O)n1` [Brigatinib (Brigatinib), Brigatinib], the GI50 in data set [13] was 287 nM; in [14], 516 nM; in data set [15], 256 nM.
For `COc1cc(N2CCC(N3CCN(C)CC3)CC2)ccc1Nc1ncc(Cl)c(Nc2ccc(C)cc2P(C)(C)=O)n1` [Control compound 3], the GI50 in data set [1] stood at 2340 nM; in [2], 566 nM; in data set [3] it was 39.4 nM; in data set [4], 203 nM; in data set [5], 192 nM; in [6] it was 216 nM. Also, the GI50 in [7] was determined as 50.2 nM.
On to `COc1cc(N2CCC(N3CCN(C)CC3)CC2)c(C)cc1Nc1ncc(Cl)c(Nc2cccc(C)c2P(C)(C)=O)n1` [Control compound 1], for which the GI50 in data set [1] worked out at 1600 nM; in [2], 626 nM; in [3] it was 34.1 nM; in data set [4], 184 nM; in [16] it was 573 nM; in data set [17] it was 156 nM. The GI50 in data set [5] turned out to be 180 nM; in [6], 166 nM; in data set [7] it was 65 nM.
